Test results as given in ChEMBL document CHEMBL4602719, “Discovery of Potent, Selective, and Orally Bioavailable Inhibitors of USP7 with In Vivo Antitumor Activity” (J Med Chem, 2020).

Key:
[1] = molecular target: T1, Ubiquitin carboxyl-terminal hydrolase 47 (Homo sapiens, UniProt Q96K76); test: Inhibition of USP47 (unknown origin) by biochemical assay
T1 sequence (Q96K76 whole entry): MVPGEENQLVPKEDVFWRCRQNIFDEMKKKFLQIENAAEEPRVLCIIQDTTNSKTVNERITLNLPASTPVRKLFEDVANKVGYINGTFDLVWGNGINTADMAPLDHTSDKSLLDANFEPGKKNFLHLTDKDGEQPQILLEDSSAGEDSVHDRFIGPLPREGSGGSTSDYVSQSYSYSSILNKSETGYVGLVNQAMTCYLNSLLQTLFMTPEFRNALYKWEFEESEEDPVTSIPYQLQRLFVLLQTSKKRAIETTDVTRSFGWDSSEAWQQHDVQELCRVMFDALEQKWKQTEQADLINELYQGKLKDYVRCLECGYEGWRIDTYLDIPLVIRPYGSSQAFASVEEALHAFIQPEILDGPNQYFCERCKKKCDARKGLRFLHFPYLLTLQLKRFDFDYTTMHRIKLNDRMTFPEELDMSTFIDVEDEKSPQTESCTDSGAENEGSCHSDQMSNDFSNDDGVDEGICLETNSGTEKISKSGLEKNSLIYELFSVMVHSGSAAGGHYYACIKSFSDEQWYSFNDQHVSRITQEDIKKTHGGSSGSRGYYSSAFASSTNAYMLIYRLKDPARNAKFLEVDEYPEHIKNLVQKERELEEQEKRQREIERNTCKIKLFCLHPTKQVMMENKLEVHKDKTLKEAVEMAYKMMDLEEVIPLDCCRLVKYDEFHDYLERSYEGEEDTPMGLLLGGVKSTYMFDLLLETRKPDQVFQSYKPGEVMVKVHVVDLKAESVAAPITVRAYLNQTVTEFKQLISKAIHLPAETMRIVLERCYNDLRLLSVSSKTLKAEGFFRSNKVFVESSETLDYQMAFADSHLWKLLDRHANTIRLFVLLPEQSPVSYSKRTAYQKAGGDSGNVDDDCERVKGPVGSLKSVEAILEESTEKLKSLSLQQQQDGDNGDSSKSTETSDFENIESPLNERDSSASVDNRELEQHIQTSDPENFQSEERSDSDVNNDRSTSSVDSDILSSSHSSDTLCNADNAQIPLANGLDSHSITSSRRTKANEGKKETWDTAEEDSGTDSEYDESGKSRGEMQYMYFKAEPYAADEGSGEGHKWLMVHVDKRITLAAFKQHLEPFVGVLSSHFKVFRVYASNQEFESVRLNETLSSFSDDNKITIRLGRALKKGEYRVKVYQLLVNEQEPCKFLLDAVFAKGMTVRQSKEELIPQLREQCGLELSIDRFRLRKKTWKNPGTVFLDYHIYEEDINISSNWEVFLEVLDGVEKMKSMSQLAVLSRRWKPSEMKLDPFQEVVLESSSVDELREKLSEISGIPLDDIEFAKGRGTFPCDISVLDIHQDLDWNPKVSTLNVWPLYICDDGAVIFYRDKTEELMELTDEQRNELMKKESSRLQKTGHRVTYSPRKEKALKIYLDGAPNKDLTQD

[2] = Cytotoxicity against human RKO cells assessed as reduction in cellular ATP level measured after 5 days by CellTiter-Glo assay; assay type: cell-based
[3] = molecular target: Voltage-gated inwardly rectifying potassium channel KCNH2 (Homo sapiens, UniProt Q12809); test: Inhibition of human ERG
[4] = AUC in Sprague-Dawley rat at 2 mg/kg, po; assay type: ADME, organism-based; conditions: in vivo
[5] = molecular target: Ubiquitin carboxyl-terminal hydrolase 2 (Homo sapiens, UniProt O75604); test: Inhibition of human GST-tagged USP2 isoform 4 expressed in Escherichia coli assessed as cleavage of Ubiquitin-Rhodamine110-glycine to Ubiquitin and Rhodamine110-glycine using Ubiquitin-Rhodamine110-glycine as substrate by fluorescence based analysis
[6] = molecular target: Ubiquitin carboxyl-terminal hydrolase 6 (Homo sapiens, UniProt P35125); test: Inhibition of human GST-tagged USP6 CD (529 to 1406 residues) expressed in Sf21 insect cells assessed as cleavage of Ubiquitin-Rhodamine110-glycine to Ubiquitin and Rhodamine110-glycine using Ubiquitin-Rhodamine110-glycine as substrate by fluorescence based analysis
[7] = molecular target: Ubiquitin carboxyl-terminal hydrolase 9X (Homo sapiens, UniProt Q93008); test: Inhibition of human GST-tagged USP9X CD (1554 to 1995 residues) expressed in Escherichia coli assessed as cleavage of Ubiquitin-Rhodamine110-glycine to Ubiquitin and Rhodamine110-glycine using Ubiquitin-Rhodamine110-glycine as substrate by fluorescence based analysis
Sequence of Ubiquitin carboxyl-terminal hydrolase 9X (Q93008 whole entry, the tested form may be a part): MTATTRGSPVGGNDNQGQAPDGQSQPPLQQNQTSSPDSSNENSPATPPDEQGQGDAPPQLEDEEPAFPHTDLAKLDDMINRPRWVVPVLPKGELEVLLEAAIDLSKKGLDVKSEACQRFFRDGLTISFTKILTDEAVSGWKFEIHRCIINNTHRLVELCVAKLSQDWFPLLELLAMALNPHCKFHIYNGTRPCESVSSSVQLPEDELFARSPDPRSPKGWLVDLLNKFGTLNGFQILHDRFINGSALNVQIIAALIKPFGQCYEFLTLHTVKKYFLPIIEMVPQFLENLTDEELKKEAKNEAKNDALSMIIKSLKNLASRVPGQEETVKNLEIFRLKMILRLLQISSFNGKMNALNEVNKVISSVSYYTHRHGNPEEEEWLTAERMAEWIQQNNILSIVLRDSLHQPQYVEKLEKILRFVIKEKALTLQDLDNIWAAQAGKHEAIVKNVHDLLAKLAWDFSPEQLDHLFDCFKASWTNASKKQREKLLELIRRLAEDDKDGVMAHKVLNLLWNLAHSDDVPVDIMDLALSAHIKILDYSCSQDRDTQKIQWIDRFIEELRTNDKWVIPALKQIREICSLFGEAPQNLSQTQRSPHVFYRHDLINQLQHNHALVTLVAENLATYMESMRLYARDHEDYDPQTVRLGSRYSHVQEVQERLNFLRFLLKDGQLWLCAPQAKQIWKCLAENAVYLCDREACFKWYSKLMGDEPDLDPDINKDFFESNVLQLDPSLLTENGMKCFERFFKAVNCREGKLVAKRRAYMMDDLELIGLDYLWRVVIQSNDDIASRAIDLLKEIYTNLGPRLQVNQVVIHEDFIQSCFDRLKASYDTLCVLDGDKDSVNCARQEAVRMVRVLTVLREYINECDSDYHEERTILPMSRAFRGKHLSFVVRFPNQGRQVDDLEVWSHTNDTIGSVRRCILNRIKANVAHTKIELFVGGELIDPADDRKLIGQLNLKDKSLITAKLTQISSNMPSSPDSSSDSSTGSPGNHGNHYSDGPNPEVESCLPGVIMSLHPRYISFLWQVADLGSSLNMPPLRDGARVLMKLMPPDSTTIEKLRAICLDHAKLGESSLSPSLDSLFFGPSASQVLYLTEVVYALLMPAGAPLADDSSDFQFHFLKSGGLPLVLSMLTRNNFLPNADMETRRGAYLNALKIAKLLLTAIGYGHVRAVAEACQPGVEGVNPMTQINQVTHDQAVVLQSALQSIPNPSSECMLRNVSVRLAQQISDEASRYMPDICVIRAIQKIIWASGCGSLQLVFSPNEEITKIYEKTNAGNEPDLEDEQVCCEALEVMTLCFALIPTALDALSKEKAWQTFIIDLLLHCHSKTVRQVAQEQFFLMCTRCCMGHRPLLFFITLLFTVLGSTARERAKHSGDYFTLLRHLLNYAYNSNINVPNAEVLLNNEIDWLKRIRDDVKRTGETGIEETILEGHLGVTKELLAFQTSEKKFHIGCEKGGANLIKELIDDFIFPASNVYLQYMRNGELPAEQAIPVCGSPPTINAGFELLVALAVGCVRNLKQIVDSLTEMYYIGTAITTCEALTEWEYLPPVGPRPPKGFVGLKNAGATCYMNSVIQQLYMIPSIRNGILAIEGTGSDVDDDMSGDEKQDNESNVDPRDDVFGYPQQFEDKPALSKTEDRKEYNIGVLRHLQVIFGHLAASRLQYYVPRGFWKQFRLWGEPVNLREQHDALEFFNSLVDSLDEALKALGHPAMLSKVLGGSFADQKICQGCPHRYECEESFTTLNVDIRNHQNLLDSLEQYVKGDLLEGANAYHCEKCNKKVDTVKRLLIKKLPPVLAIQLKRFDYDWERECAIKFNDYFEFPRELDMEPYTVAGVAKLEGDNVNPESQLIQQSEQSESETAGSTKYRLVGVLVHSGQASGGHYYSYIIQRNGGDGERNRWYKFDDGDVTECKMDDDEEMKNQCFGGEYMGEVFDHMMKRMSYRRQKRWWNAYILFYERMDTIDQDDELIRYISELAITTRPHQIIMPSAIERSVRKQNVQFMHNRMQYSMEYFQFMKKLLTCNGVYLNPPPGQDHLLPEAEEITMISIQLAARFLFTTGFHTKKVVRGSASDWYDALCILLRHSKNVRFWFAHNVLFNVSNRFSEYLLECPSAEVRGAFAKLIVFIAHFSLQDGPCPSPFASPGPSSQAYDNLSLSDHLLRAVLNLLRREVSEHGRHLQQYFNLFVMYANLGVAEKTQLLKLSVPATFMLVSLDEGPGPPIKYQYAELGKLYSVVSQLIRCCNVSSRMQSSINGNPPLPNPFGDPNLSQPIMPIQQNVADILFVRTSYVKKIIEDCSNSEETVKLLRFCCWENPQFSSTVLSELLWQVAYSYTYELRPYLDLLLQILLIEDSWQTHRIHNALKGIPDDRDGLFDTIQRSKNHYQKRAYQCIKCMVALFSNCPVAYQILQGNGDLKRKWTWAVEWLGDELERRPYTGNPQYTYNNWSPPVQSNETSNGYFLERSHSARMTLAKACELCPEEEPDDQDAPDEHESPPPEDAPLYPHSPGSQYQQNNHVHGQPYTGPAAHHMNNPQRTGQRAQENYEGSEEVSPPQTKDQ

[8] = molecular target: Ubiquitin carboxyl-terminal hydrolase 11 (Homo sapiens, UniProt P51784); test: Inhibition of USP11 (unknown origin)
Sequence of Ubiquitin carboxyl-terminal hydrolase 11 (P51784 whole entry, the tested form may be a part): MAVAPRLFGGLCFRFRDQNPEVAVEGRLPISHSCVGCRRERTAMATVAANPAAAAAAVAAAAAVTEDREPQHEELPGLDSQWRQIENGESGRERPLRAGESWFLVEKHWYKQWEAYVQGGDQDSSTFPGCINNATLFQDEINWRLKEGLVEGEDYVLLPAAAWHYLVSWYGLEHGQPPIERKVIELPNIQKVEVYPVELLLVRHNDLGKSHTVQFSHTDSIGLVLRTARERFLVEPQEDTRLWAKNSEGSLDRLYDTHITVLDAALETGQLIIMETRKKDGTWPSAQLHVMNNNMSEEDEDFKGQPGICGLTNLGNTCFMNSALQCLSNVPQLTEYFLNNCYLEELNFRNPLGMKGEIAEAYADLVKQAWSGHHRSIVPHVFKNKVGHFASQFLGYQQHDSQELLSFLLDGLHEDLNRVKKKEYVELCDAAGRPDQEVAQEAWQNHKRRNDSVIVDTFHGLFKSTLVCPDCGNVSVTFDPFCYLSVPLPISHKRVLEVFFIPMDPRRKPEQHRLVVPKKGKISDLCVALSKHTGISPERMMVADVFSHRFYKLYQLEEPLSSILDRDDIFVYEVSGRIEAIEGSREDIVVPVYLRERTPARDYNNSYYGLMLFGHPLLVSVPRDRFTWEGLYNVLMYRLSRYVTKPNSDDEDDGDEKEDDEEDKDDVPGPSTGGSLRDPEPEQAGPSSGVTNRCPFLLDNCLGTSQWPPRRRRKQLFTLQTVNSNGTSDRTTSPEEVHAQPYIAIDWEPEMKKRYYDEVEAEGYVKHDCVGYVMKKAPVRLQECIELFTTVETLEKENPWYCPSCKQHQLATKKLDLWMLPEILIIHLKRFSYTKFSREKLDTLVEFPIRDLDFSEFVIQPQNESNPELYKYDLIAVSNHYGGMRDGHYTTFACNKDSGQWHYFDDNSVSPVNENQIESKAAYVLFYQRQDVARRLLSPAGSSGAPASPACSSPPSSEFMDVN

[9] = molecular target: Ubiquitin carboxyl-terminal hydrolase 21 (Homo sapiens, UniProt Q9UK80); test: Inhibition of human GST-tagged USP21 CD (196 to 565 residues) expressed in Escherichia coli assessed as cleavage of Ubiquitin-Rhodamine110-glycine to Ubiquitin and Rhodamine110-glycine using Ubiquitin-Rhodamine110-glycine as substrate by fluorescence based analysis
Sequence of Ubiquitin carboxyl-terminal hydrolase 21 (Q9UK80 whole entry, the tested form may be a part): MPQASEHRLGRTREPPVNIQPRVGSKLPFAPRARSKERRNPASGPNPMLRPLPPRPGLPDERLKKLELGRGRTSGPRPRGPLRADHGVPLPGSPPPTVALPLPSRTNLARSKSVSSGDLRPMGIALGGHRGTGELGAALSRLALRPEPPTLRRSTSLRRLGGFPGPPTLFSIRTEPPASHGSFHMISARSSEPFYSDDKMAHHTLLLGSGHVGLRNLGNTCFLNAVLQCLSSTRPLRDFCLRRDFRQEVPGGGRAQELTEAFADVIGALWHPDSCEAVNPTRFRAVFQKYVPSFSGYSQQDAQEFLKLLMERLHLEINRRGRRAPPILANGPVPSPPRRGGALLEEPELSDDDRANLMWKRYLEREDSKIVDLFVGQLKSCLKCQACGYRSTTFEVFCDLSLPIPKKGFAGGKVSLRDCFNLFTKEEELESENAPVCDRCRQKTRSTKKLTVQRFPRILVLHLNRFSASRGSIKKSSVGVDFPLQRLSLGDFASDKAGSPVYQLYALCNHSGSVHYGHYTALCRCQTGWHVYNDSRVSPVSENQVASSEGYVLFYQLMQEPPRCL

[10] = molecular target: Ubiquitin carboxyl-terminal hydrolase 35 (Homo sapiens, UniProt Q9P2H5); test: Inhibition of USP35 (unknown origin)
[11] = molecular target: Ubiquitin carboxyl-terminal hydrolase isozyme L5 (Homo sapiens, UniProt Q9Y5K5); test: Inhibition of human GST-tagged UCHL5 expressed in Escherichia coli assessed as cleavage of Ubiquitin-Rhodamine110-glycine to Ubiquitin and Rhodamine110-glycine using Ubiquitin-Rhodamine110-glycine as substrate by fluorescence based analysis
[12] = molecular target: Deubiquitinating protein VCPIP1 (Homo sapiens, UniProt Q96JH7); test: Inhibition of human GST-tagged VCPIP CD (25 to 561 residues) expressed in Escherichia coli assessed as cleavage of Ubiquitin-Rhodamine110-glycine to Ubiquitin and Rhodamine110-glycine using Ubiquitin-Rhodamine110-glycine as substrate by fluorescence based analysis
AMSH-like protease = AMSH-like protease (Homo sapiens, UniProt Q96FJ0); test: Inhibition of human GST-tagged AMSH-LP CD (264 to 436 residues) expressed in Escherichia coli assessed as cleavage of Ubiquitin-Rhodamine110-glycine to Ubiquitin and Rhodamine110-glycine using Ubiquitin-Rhodamine110-glycine as substrate by fluorescence based analysis
Sequence of AMSH-like protease (Q96FJ0 whole entry, the tested form may be a part): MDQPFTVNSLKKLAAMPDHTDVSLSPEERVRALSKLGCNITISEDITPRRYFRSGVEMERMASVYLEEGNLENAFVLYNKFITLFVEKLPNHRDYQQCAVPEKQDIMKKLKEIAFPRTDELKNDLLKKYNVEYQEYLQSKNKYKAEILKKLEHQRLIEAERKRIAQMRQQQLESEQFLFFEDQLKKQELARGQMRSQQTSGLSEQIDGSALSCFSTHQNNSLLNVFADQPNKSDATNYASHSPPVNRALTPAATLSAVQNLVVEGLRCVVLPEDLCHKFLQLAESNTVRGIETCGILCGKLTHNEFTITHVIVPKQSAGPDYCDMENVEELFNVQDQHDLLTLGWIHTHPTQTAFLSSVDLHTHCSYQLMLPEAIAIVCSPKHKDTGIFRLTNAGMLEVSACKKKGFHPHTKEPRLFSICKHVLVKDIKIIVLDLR

Ataxin-3-like protein = Ataxin-3-like protein (Homo sapiens, UniProt Q9H3M9); test: Inhibition of human 6His-tagged Ataxin-3L expressed in Escherichia coli assessed as cleavage of Ubiquitin-Rhodamine110-glycine to Ubiquitin and Rhodamine110-glycine using Ubiquitin-Rhodamine110-glycine as substrate by fluorescence based analysis
Sequence of Ataxin-3-like protein (Q9H3M9 whole entry): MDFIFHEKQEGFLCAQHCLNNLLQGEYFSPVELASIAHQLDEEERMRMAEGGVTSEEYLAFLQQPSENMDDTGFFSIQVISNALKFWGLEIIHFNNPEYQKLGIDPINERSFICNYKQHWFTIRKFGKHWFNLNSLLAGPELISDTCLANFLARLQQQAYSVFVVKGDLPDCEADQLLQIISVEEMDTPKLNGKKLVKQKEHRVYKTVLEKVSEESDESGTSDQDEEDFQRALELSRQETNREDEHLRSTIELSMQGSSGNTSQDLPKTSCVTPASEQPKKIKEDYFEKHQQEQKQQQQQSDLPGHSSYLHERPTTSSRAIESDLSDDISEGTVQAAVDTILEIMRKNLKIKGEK

Josephin-1 = Josephin-1 (Homo sapiens, UniProt Q15040); test: Inhibition of human His6-tagged JOSD1 expressed in Escherichia coli assessed as cleavage of Ubiquitin-Rhodamine110-glycine to Ubiquitin and Rhodamine110-glycine using Ubiquitin-Rhodamine110-glycine as substrate by fluorescence based analysis
[13] = molecular target: Ubiquitin carboxyl-terminal hydrolase 5 (Homo sapiens, UniProt P45974); test: Inhibition of human 6His-tagged USP5 expressed in Escherichia coli assessed as cleavage of Ubiquitin-Rhodamine110-glycine to Ubiquitin and Rhodamine110-glycine using Ubiquitin-Rhodamine110-glycine as substrate by fluorescence based analysis

IC50 [1]: > 10 µM
AUC [4]: 4700 ng·h/mL
IC50 [5]: > 10 µM
IC50 [6]: > 10 µM
IC50 [7]: > 10 µM
IC50 [8]: > 10 µM
IC50 [9]: > 10 µM
IC50 [10]: > 10 µM
IC50 [11]: > 10 µM
IC50 [12]: > 10 µM
IC50 (AMSH-like protease): > 10 µM
IC50 (Josephin-1): > 10 µM
IC50 [13]: > 10 µM
Structure (SMILES): Cc1cc(Cl)cc(-c2ccnc3cc(CN4C(=O)C5C(C4=O)C5(C)C)sc23)c1O[C@@H]1CCNC[C@@H]1C (stereo partly specified)
CC50 at 120 h [2]: 3.4 µM
IC50 [3]: 0.4 µM
IC50 (Ataxin-3-like protein): > 10 µM
